The results in this text go back to article PMC1838525 (Protein science : a publication of the Protein Society, 2006).

The target in the assay is T1, Vam7p PX domain (Saccharomyces cerevisiae, UniProt P32912).
T1 sequence (P32912 2-122): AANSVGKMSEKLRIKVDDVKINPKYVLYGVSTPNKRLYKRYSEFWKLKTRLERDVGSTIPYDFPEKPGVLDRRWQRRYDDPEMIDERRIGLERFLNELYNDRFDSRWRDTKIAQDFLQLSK
Nature of the assay: 1H, […] HSQC NMR titration. The class given is binding.

As a reminder, the Kd is a measure of binding affinity in units of concentration. Read a high Kd as weaker binding. In turn, `CCCC(=O)OC[C@H](COP(=O)(O)O[C@@H]1[C@H](O)[C@H](OP(=O)(O)O)[C@@H](O)[C@H](O)[C@H]1O)OC(=O)CCC` [C4-PtdIns(3)P] yielded an equilibrium dissociation constant (Kd) of 299 ± 26 µM.
